Read-outs that look alike come from different tables or passages of the source.
Target: T1, F508delCFTR (Homo sapiens, UniProt P13569, DEL508-508)
T1 construct: expressed in transfected cells; host or cells: CFBE41o- human lung-derived epithelial cells (CFBE4lo-F508delCFTR-HRP), doxycycline-inducible
Assay: Cell Surface Expression-Horse Radish Peroxidase (CSE-HRP) Assay;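 as to Maximum % activity (with co-corrector): co-corrector and positive control are both the same reference corrector at 2 µM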;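 as to Maximum % activity (without co-corrector): percent of the 2 µM on-plate positive control corrector response above DMSO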
Assay type: cell-based
Conditions: for Emax: read-out: Maximum % activity (without co-corrector)

[1] = CSE-HRP, test compound without co-corrector, read-out: EC50 (without co-corrector)
[2] = CSE-HRP, with co-corrector (2 μM of 3-[(2R,4R)-4-({[1-(2,2-difluoro-1,3-benzodioxol-5-yl)cyclopropyl]carbonyl}amino)-7-methoxy-3,4-dihydro-2H-chromen-2-yl]benzoic acid), read-out: EC50 (with co-corrector)
[3] = CSE-HRP, with co-corrector (2 μM), maximum at any tested concentration, normalized to on-plate positive control
[4] = CSE-HRP, without co-corrector, maximum at any tested concentration, normalized to on-plate positive control
[5] = test compound without co-corrector, read-out: EC50 (without co-corrector)
[6] = with co-corrector (2 μM of 3-[(2R,4R)-4-({[1-(2,2-difluoro-1,3-benzodioxol-5-yl)cyclopropyl]carbonyl}amino)-7-methoxy-3,4-dihydro-2H-chromen-2-yl]benzoic acid), read-out: EC50 (with co-corrector)
[7] = with co-corrector (2 μM), maximum at any tested concentration, normalized to on-plate positive control
[8] = without co-corrector, maximum at any tested concentration, normalized to on-plate positive control
[9] = test compound without co-corrector, maximum at any tested concentration, normalized to on-plate positive control
[10] = with co-corrector (2 μM of 3-[(2R,4R)-4-({[1-(2,2-difluoro-1,3-benzodioxol-5-yl)cyclopropyl]carbonyl}amino)-7-methoxy-3,4-dihydro-2H-chromen-2-yl]benzoic acid), maximum at any tested concentration, normalized to on-plate positive control

T1 sequence (P13569 with tags, fused parts or gaps DEL508-508): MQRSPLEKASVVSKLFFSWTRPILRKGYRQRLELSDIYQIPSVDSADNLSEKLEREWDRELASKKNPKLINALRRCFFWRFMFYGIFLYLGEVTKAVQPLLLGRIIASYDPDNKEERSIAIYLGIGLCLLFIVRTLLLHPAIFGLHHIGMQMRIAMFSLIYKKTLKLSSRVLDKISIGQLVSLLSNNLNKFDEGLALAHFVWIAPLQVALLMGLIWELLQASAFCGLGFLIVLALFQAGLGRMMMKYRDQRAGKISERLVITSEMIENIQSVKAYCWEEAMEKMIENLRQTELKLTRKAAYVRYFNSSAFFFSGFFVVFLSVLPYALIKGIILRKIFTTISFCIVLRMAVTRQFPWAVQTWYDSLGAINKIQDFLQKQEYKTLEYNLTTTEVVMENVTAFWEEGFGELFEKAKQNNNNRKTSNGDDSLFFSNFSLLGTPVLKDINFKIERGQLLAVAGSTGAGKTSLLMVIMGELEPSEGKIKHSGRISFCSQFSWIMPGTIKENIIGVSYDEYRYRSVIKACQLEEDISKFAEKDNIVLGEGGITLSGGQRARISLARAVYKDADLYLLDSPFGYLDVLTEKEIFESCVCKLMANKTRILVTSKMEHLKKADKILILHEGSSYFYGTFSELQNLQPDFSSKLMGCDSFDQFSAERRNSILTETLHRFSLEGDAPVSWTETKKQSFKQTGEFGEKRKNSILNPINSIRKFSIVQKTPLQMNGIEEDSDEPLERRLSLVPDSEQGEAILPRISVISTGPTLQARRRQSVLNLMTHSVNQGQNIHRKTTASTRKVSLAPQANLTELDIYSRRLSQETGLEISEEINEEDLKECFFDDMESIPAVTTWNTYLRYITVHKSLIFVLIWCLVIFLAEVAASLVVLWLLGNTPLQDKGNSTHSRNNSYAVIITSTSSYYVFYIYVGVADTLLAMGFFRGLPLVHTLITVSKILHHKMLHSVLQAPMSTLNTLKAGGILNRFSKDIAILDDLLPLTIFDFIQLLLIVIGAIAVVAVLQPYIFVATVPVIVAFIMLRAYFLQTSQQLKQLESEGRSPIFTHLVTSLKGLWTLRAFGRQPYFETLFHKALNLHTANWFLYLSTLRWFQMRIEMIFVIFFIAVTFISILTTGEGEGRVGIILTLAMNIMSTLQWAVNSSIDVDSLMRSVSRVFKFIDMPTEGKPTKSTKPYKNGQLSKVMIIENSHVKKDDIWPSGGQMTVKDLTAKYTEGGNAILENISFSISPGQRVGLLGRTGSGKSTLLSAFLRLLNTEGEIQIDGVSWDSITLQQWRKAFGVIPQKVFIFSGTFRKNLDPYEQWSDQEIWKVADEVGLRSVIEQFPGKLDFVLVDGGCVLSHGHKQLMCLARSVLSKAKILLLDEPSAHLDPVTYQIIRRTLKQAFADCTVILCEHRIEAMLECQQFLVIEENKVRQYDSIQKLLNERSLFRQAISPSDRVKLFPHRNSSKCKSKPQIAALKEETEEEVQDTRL

SMILES	EC50 [1] [nM]	EC50 [2] [nM]	Maximum % activity (with co-corrector) [3]	Emax [4] [%]	EC50 [5] [nM]	EC50 [6] [nM]	Maximum % activity (with co-corrector) [7]	Emax [8] [%]	Maximum % activity (without co-corrector) [4]	Emax [9] [%]	Maximum % activity (with co-corrector) [10]
COc1ccc(Cl)cc1CN[C@@H]1[C@@H](C(C)(C)C)[C@H](C(=O)O)N(C(=O)C2COCCO2)[C@@H]1c1ccccc1 (mixture of isomers) [II-86]	1000 to 10000	1000 to 10000	++ (≥150 and <350)	< 100	–	–	–	–	–	–	–
COc1ccc(C(C)(C)C)cc1CN[C@H]1[C@H](C(C)(C)C)[C@@H](C(=O)O)N(C(=O)C2CCOC2C(C)C)[C@H]1c1ccccc1 (stereo partly shown) [Example I-218]	–	–	–	–	1000 to 10000	1000 to 10000	+++ (≥350)	> 200	–	–	–
COc1ccc(C(C)(C)C)cc1CN[C@H]1[C@H](C(C)(C)C)[C@@H](C(=O)O)N(C(=O)C(C)n2cc(Cl)c(C)n2)[C@H]1c1ccccc1 (single isomer, unassigned) [III-182]	1000 to 10000	1000 to 10000	+++ (≥350)	–	–	–	–	–	+++ (≥200)	–	–
COc1ccc(C(F)(F)F)cc1CN[C@H]1[C@H](C(C)(C)C)[C@@H](C(=O)O)N(C(=O)C2CCCC(F)(F)C2)[C@H]1c1cccnc1OC (relative stereo) [Example I-256]	1000 to 10000	< 1000	+++ (≥350)	> 200	–	–	–	–	–	–	–
COc1ccc(C(C)(C)C)cc1CN[C@H]1[C@H](C(C)(C)C)[C@@](C)(C(=O)O)N(C(=O)C2CCCCC2)[C@H]1c1ccccc1 (racemic) [Example I-211]	–	–	–	–	> 10000	1000 to 10000	+ (<150)	< 100	–	–	–
COc1ccc(C(C)(C)C)cc1CN[C@H]1[C@H](C(C)(C)C)[C@@H](C(=O)O)N(C(=O)c2ccccc2)[C@H]1c1ccccc1 [Example I-65]	–	–	–	–	1000 to 10000	1000 to 10000	+++ (≥350)	100 to 200	–	–	–
CC(C)(C)[C@H]1[C@H](NC2CCOc3ccc(Cl)cc32)[C@H](c2ccccc2)N(C(=O)C2CCCCC2)[C@@H]1C(=O)O (stereo partly shown) [II-167]	1000 to 10000	1000 to 10000	++ (≥150 and <350)	< 100	–	–	–	–	–	–	–
COc1ncc(-c2cccnc2C)cc1CN[C@H]1[C@H](C(C)(C)C)[C@@H](C(=O)O)N(C(=O)C2CCCCC2)[C@H]1c1ccccc1 [II-348]	–	–	–	–	1000 to 10000	1000 to 10000	–	–	–	< 100	+++ (≥350)
CC(C)(C)[C@H]1[C@H](NCc2ccc3c(c2)CCO3)[C@H](c2ccccc2)N(C(=O)C2CCCCC2)[C@@H]1C(=O)O [III-122]	–	–	–	–	> 10000	1000 to 10000	++ (≥150 and <350)	–	–	< 100	–
COc1ccc(C2(C)CCC2)cc1CN[C@H]1[C@H](C(C)(C)C)[C@@H](C(=O)O)N(C(=O)[C@@H]2CCCCO2)[C@H]1c1ccccc1C [Example 109, (2S,3S,4S,5S)-3-tert-butyl-4-({[2-methoxy-5-(1-methylcyclobutyl)phenyl]methyl}amino)-5-(2-methylphenyl)-1-[(2S)-oxane-2-carbonyl]pyrrolidine-2-carboxylic acid]	–	–	–	–	< 1000	< 1000	+++ (≥350)	> 200	–	–	–
COc1ccc(C(C)(C)C)cc1CN[C@H]1[C@H](C(C)(C)C)[C@@H](C(=O)O)N(C(=O)[C@H](C)c2ccccc2)[C@H]1c1cccnc1OC [Example I-239]	–	–	–	–	1000 to 10000	1000 to 10000	+++ (≥350)	100 to 200	–	–	–
COc1cc(C(F)(F)F)ccc1CN[C@H]1[C@H](C2(C)CC2)[C@@H](C(=O)O)N(C(=O)C2CCCCC2)[C@H]1c1ccccc1 [II-303]	1000 to 10000	1000 to 10000	+++ (≥350)	< 100	–	–	–	–	–	–	–
COc1ncc(-c2ccc(F)cc2C)cc1CN[C@H]1[C@H](C(C)(C)C)[C@@H](C(=O)O)N(C(=O)C2CCCCC2)[C@H]1c1cccnc1N(C)C [II-409]	–	–	–	–	1000 to 10000	< 1000	–	–	–	100 to 200	+++ (≥350)
COc1cc(C(F)(F)F)ccc1CN[C@@H]1[C@@H](C(C)(C)C)[C@H](C(=O)O)N(C(=O)[C@@H]2CCCCO2)[C@@H]1c1ccccc1 [II-82]	1000 to 10000	1000 to 10000	+++ (≥350)	100 to 200	–	–	–	–	–	–	–
CC(C)(C)c1cc(CN[C@H]2[C@H](C(C)(C)C)[C@@H](C(=O)O)N(C(=O)C3CCCCC3)[C@H]2c2ccccc2)cc(C(C)(C)C)c1 [II-133]	1000 to 10000	1000 to 10000	++ (≥150 and <350)	< 100	–	–	–	–	–	–	–
COc1ccc(C(C)(C)C)cc1CN[C@H]1[C@H](C(C)(C)C)[C@@H](C(=O)O)N(C(=O)C2COC(C(C)C)OC2)[C@H]1c1ccccc1 (stereo partly shown) [II-216]	1000 to 10000	1000 to 10000	+++ (≥350)	100 to 200	–	–	–	–	–	–	–
